Source: patent publication US20240415123A1, “METHODS AND COMPOSITIONS FOR ICAFOLIN HERBICIDE TOLERANCE” (Monsanto Technology LLC, priority 2023, published 2024)

Legend:
[1] = test system: transgenic soybean plants expressing CYP34; test: Icafolin herbicide injury rating, greenhouse spray, CYP34 soybean; format: in vivo; conditions: Table 10
Description: The codon-optimized gene was placed into plant transformation cassette with the CYP34 coding sequence operably linked to a constitutive expression element comprising the promoter, leader, and intron of Arabidopsis thaliana Ubiquitin 3 (SEQ ID NO:14) and a Medicago truncatula photosystem II terminator (SEQ ID NO:15). A plant transformation vector was created, comprising the CYP34 gene cassette and an aadA selectable marker expression cassette, which confers resistance to the antibiotics spectinomycin and streptomycin. Soybean cultivar AG3555 seed-derived embryo explants were transformed with the vector described above by Agrobacterium-mediated transformation using known methods in the art, and positive-transformed plantlets were selected based on growth in the presence of spectinomycin. Plantlets comprising single copy events were grown in the greenhouse to produce R1 seeds. R1 plants were subsequently selected for the homozygous CYP positive plants, either by molecular analysis of young leaf tissue or by seed chipping prior to planting. These selected plants were then screened for tolerance to the icafolin herbicide.
(§1) Herbicide tolerance screening was performed by selecting R1 plants at roughly the V2-V3 developmental stage and applying the icafolin herbicide in a track sprayer under standard greenhouse conditions. Two independent transgenic events per transgene were selected for screening. The herbicide was formulated with 1% v/v methylated seed oil (MSO) and 2.5% v/v ammonium sulfate (AMS) and sprayed with a XR nozzle at 15 gallons per […] (GPA) to mimic field conditions. The icafolin formulation was sprayed at two rates: 5 g active ingredient (ai)/hectare (ha) and 25 g ai/ha. The treated soybean plants were returned to the greenhouse following spray application and allowed to grow under standard conditions. The plants were rated for herbicide injury at approximately 13 and 21 days after treatment (DAT). Untreated transgenic plants and control (wild-type) plants were used for phenotypic comparison. The herbicide injury rating accounts for plant malformation, stunting, chlorosis, necrosis, and plant death relative to the untreated control plants. An injury rating of approximately 90% or above indicates nearly complete plant death. An injury rating of less than 30% indicates partial tolerance and an injury rating of less than 20% indicates good tolerance. Injury ratings were collected and analyzed, and photographs of representative plants were taken.

[2] = test system: control (wild-type) soybean plants; test: Icafolin herbicide injury rating, greenhouse spray, control soybean; format: in vivo; conditions: for Percent Injury 13 DAT / Percent Injury 14 DAT / Percent Injury 15 DAT / Percent injury 21 DAT: Control
Description: Herbicide tolerance screens were performed by selecting R1 plants at roughly the V2-V3 developmental stage and applying icafolin herbicide with a track sprayer under standard greenhouse conditions. Two independent transgenic events per transgene were screened. The herbicide was formulated with 1% v/v methylated seed oil (MSO) and 2.5% v/v ammonium sulfate (AMS) and sprayed with a XR nozzle at 15 gallons per […] (GPA) to mimic field conditions. The icafolin used in this Example and in the experiments described in Examples 2-4 was a mixture of the methyl ester forms of the 2R, 4R and 2S, 4S isomers. The icafolin formulation was sprayed at two rates: 5 g active ingredient (ai)/hectare (ha) and 25 g ai/ha. The herbicide treated soybean plants were returned to the greenhouse following spray application and allowed to grow under standard conditions. Plants were rated for herbicide injury at approximately 14 and 21 days after treatment (DAT). Untreated transgenic plants and control (wild-type) plants were used for phenotypic comparison. The herbicide injury rating accounts for plant malformation, stunting, chlorosis, necrosis, and plant death relative to the untreated control plants. An injury rating of approximately 90% or above indicates nearly complete plant death. An injury rating of less than 30% indicates partial tolerance, and an injury rating of less than 20% indicates good tolerance. Injury ratings were collected and analyzed, and photographs of representative plants were taken.
as §1, with “14” for “13”
as §1, with “An injury rating of approximately 90% or above indicates nearly complete plant death. An injury rating of less than 30% indicates partial tolerance and an injury rating of less than 20% indicates good tolerance. Injury ratings were collected and analyzed, and photographs of representative plants were taken.” left out

[3] = CYP34 Event 326, 5 g ai/ha icafolin
[4] = CYP34 Event 326, 25 g ai/ha icafolin
[5] = CYP34 Event 356, 5 g ai/ha icafolin
[6] = CYP34 Event 356, 25 g ai/ha icafolin
[7] = 5 g ai/ha icafolin, Experiment 1
[8] = 25 g ai/ha icafolin, Experiment 1

C=C[C@]1(C(=O)N[C@H]2CO[C@@H](C(=O)OC)C2)CC(c2cc(F)cc(F)c2)=NO1 (relative stereo) [icafolin, methyl(2R*,4R*)-4-[[(5S)-3-(3,5-difluorophenyl)-5-vinyl-4H-isoxazole-5-carbonyl]amino]tetrahydrofuran-2-carboxylate]
Percent Injury 13 DAT [1, 3]: 12.5%
Percent injury 21 DAT [1, 3]: 9.2%
Percent Injury 13 DAT [1, 4]: 48.3%
Percent injury 21 DAT [1, 4]: 36.7%
Percent Injury 13 DAT [1, 5]: 13.3%
Percent injury 21 DAT [1, 5]: 12.5%
Percent Injury 13 DAT [1, 6]: 35.8%
Percent injury 21 DAT [1, 6]: 30.8%
Percent Injury 13 DAT ([2]; 5 g ai/ha icafolin, 13 DAT, Table 10 (Example 4)): 42.5%
Percent Injury 14 DAT ([2]; 5 g ai/ha icafolin, 14 DAT, Experiment 2): 61%
Percent Injury 14 DAT ([2]; 5 g ai/ha icafolin, 14 DAT, Table 8 (Example 3)): 45.0%
Percent Injury 15 DAT [2, 7]: 42%
Percent injury 21 DAT [2, 7]: 50%
Percent injury 21 DAT ([2]; 5 g ai/ha icafolin, Experiment 2): 49%
Percent injury 21 DAT ([2]; 5 g ai/ha icafolin, Table 8 (Example 3)): 35.6%
Percent injury 21 DAT ([2]; 5 g ai/ha icafolin, Table 10 (Example 4)): 35.0%
Percent Injury 13 DAT ([2]; 25 g ai/ha icafolin, 13 DAT, Table 10 (Example 4)): 70.0%
Percent Injury 14 DAT ([2]; 25 g ai/ha icafolin, 14 DAT, Experiment 2): 90%
Percent Injury 14 DAT ([2]; 25 g ai/ha icafolin, 14 DAT, Table 8 (Example 3)): 78.1%
Percent Injury 15 DAT [2, 8]: 75%
Percent injury 21 DAT [2, 8]: 81%
Percent injury 21 DAT ([2]; 25 g ai/ha icafolin, Experiment 2): 91%
Percent injury 21 DAT ([2]; 25 g ai/ha icafolin, Table 8 (Example 3)): 83.1%
Percent injury 21 DAT ([2]; 25 g ai/ha icafolin, Table 10 (Example 4)): 79.4%
injury ([2]; control, 25 g ai/ha, 13 DAT, Example 4): about 70%
injury ([2]; control, 25 g ai/ha, 14 DAT, Example 3): about 78%
injury ([2]; treated control (wild-type), 5 g ai/ha, Example 1): around 50%
Injury in words ([2]; treated control (wild-type), 5 g ai/ha, Experiment 1): heavily injured
Injury in words ([2]; treated control (wild-type), 25 g ai/ha, Experiment 1): nearly completely killed
injury ([2]; treated control, 5 g ai/ha, 13 DAT, Example 4): around 42%
injury ([2]; treated control, 5 g ai/ha, 14 DAT, Example 3): around 45%
injury ([2]; treated controls, 25 g ai/ha, Example 1): around 90%
